Test results published in patent publication US20220143226A1, “USE OF TRIAZOLO[4,5-D]PYRIMIDINE DERIVATIVES” (UNIVERSITÉ DE LIÈGE, priority 2019, published 2022).

What was measured:
platelet P2Y12 receptor = platelet P2Y12 receptor (Homo sapiens, UniProt Q9H244); details: well-known in the art; cited from earlier work
[1] = tested on: platelet suspensions containing bacteria; test: Radiotracer uptake into platelet suspensions containing bacteria; type: cell-based, human; details: 2 MBq tracer, 1 h at 37° C.
Procedure: Preparation of human washed platelets: a Blood sample was collected from healthy volunteers on Acid Citrate Dextrose (ACD: 93 mM Na3-citrate, 7 mM citric acid, 14 mM dextrose, pH 6.0) containing 1 U/ml apyrase in a volume ratio of ACD to blood of 1:6. Blood was centrifuged for 5 s at 800×g followed by 5 min at 100×g to obtain platelet rich plasma (PRP). PRP was diluted 3-fold in ACD containing 1 U/ml apyrase ((Apyrase from potatoes, Grade I (A6132 Sigma-Aldrich)) and centrifuged at 1000×g to obtain a platelet pellet. The platelet pellet was resuspended at a concentration of 3×10^8 ml^−1 in Tyrode's buffer (137 mM NaCl, 12 mM NaHCO3, 2 mM KCl, 0.34 mM Na2HPO4, 1 mM MgCl2, 5.5 mM glucose, 5 mM Hepes, 0.35% Bovine Serum Albumine from Sigma Aldrich A3294) and Hepes refers to 4-(2-Hydroxyethyl)piperazine-1-ethanesulfonic acid, N-(2-Hydroxyethyl)piperazine-N′-(2-ethanesulfonic acid) (H4034, Sigma-Aldrich).
Bacteria and platelets were harvested by centrifugation (1000×g, 10 min) and washed three times by successive centrifugations (1000×g for 10 min). Supernatants were collected in scintillation vials. After washing, the cells were transferred into scintillation vials. Cells and supernatants were counted by gamma counter (2470 Wizard^2™ (Perkin Elmer))
Results were obtained as counts per min. […]

S. epidermidis bacteria = test: Radiotracer uptake into bacteria, selectivity over mammalian cells (Example 4); type: cell-based; details: 2 MBq tracer, 1 h at 37° C.
Procedure: S. epidermidis bacteria were grown overnight in tryptic soy broth (TSB) at 37° C., with shaking at 250 rpm. The overnight culture was diluted to OD600 0.1 and incubated until mid-exponential phase was reached. 1×10^8 CFU were resuspended in 1 ml RPMI 1640. […] Bacteria and non-adherent cells were harvested by centrifugation (600×g, 5 min) and washed three times by successive centrifugations. Cell supernatants were collected in scintillation vials. After washing, the cells were transferred into scintillation vials. Adherent cells were washed three times with fresh medium (McCoy's 5A medium plus 10% foetal bovine serum). Supernatants were collected into scintillation vials. Adherent cells were detached by trypsin treatment and placed into scintillation vials. The scintillation vials for cells and supernatants were counted by gamma counter. Results were obtained as counts per min. Results were normalised for controls (no cells) and by calculating the percentage of activity in the cell containing scintillation vials compared with the total counts (cells and supernatant combined).

THP1 cells = test: Radiotracer uptake into THP1 cells; type: cell-based, human; details: 2 MBq tracer, 1 h at 37° C.
Procedure: (§1) THP1 (ATCC® TIB-202™) and HL60 (ATCC® CCL-240™) cell lines were grown in RPMI 1640 tissue culture medium supplemented with L-glutamine, 10% foetal calf serum and 1% penicillin/streptomycin at 37° C. and 5% CO2. HT29 cell line (ATCC® HTB-38) was grown in McCoy's 5A medium and 10% foetal bovine serum at 37° C. and 5% CO2.
(§2) Non-adherent cell lines (HL60, THP1; 1×10^6 cells ml^−1) were harvested, washed and resuspended in 1 ml tissue culture medium. The adherent cells HT29 were maintained in 6-well plates at 80% confluence.
(§3) Bacteria and non-adherent cells were harvested by centrifugation (600×g, 5 min) and washed three times by successive centrifugations. Cell supernatants were collected in scintillation vials. After washing, the cells were transferred into scintillation vials. Adherent cells were washed three times with fresh medium (McCoy's 5A medium plus 10% foetal bovine serum). Supernatants were collected into scintillation vials. Adherent cells were detached by trypsin treatment and placed into scintillation vials. The scintillation vials for cells and supernatants were counted by gamma counter. Results were obtained as counts per min. Results were normalised for controls (no cells) and by calculating the percentage of activity in the cell containing scintillation vials compared with the total counts (cells and supernatant combined).

HL60 cells = test: Radiotracer uptake into HL60 cells; type: cell-based, human; details: 2 MBq tracer, 1 h at 37° C.
Procedure: as §1, §2, §3

HT29 cells = test: Radiotracer uptake into HT29 cells; type: cell-based, human; details: 2 MBq tracer, 1 h at 37° C.
Procedure: as §1, §2, §3

platelet P2Y12 receptor, sequence (Q9H244 whole entry): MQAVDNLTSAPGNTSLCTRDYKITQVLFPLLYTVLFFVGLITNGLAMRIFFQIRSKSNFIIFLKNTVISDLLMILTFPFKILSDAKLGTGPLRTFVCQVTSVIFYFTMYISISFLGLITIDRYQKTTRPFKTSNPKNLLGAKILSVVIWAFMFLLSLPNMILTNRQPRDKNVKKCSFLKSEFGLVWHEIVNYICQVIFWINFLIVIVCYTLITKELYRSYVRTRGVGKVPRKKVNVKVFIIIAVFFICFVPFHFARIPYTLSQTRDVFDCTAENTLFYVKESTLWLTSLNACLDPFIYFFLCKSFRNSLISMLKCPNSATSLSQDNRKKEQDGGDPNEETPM

Structure (SMILES)	binding to platelet P2Y12 receptor (platelet P2Y12 receptor)	relative activity associated with the cell mixture, relative to the activity of 18F-FDG [1]	uptake into bacteria (S. epidermidis bacteria)	uptake into THP1 (leukocytic) cells (THP1 cells)	uptake into HL-60 (leukocytic) cells (HL60 cells)	uptake into HT29 (tumor) cells (HT29 cells)
CCCSc1nc(N[C@@H]2C[C@H]2c2ccc(F)c(F)c2)c2nnn([C@@H]3C[C@H](OCCO)[C@@H](O)[C@H]3O)c2n1 [Triafluocyl]	binds the platelet P2Y12 receptor reversibly					
CCCSc1nc(NC2CC2c2ccc([18F])c(F)c2)c2nnn([C@@H]3C[C@H](OCCO)[C@@H](O)[C@H]3O)c2n1 (stereo partly drawn) [^18F-Triafluocyl, (1S,2S,3R,5S)-3-(7-((2-(3-fluoro-4-(fluoro-^18F)phenyl)cyclopropyl)amino)-5-(propylthio)-3H-[1,2,3]triazolo[4,5-d]pyrimidin-3-yl)-5-(2-hydroxyethoxy)cyclopentane-1,2-diol]		about 10 fold	uptake into bacteria	no uptake was observed	no uptake was observed	no uptake was observed
